Results taken from patent US8153441B2, “Method for analyzing structure and purity of serotonin transporter imaging agent [123 I] ADAM and precursor SnADAM” (Institute of Nuclear Energy Research Atomic Energy Council, priority 2008, dated 2012).

Tests used:
[1] = Forced degradation experiment of SnADAM (HPLC); assay type: physicochemical
Experimental: Three portions of 0.50 mg SnADAM were dissolved in MeOH solvent, respectively added with 1 M HCl solution, 1 M NaOH solution, and 3% H2O2 solution, and then reacted at room temperature for 30 min. The first two portions of solutions were respectively neutralized with 1 M NaOH and 1 M HCl and then added with suitable amounts of MeOH to dissolve the precipitate, while the third portion of solution was directly diluted with a suitable amount of MeOH after the reaction and then subjected to HPLC analysis. Another portion of 0.50 mg SnADAM was heated in an oven at 80° C. for 30 min, dissolved in MeOH solvent, and then subjected to HPLC analysis. […] Therefore, SnADAM can be separated from the impurities (as shown in FIG. 2) and the degradation products (as shown in FIGS. 3A-3D) without interfering with the quantitative results.

[2] = Solution stability experiment of SnADAM-MeOH solution (HPLC purity after storage at room temperature); assay type: physicochemical; conditions: for Purity of tested samples: room temperature
Experimental: 15.3 ppm, 153 ppm and 306 ppm SnADAM (test sample)-MeOH solutions were prepared and stored at room temperature for three days, and then continuously subjected to HPLC analysis. Meanwhile, a portion of fresh 10-320 ppm SnADAM-MeOH solution is prepared each day to serve as calibration standard sample. The SnADAM chromatographic peak retention time (tR), linear least square regression equation, correlation coefficient (r), purity of the test sample, SD, and RSD of the calibration sample were calculated. Referring to Table 5, the linear correlation coefficients of the fresh calibration standards prepared in three days were all greater than 0.9996. After the test sample was stored at room temperature for three days, the SnADAM retention time RSD=0.31%, and the mean purity RSD=0.05%.

CCC[CH2][Sn]([CH2]CCC)([CH2]CCC)[c]1ccc(Sc2ccccc2CN(C)C)c(N)c1 [SnADAM, 2-((2-((Dimethylamino)methyl)phenyl)thio)-5-(tri-n-butyltin)-phenylamine]
Forced degradation ([1]; 1 M HCl solution, room temperature, 30 min): two major degradation products FD1 (tR=1.55 min) and FD2 (tR=1.80 min) | Forced degradation ([1]; 1 M NaOH solution, room temperature, 30 min): a major degradation product FD1 (tR=1.55 min) | Forced degradation ([1]; 3% H2O2 solution, room temperature, 30 min): a major degradation product FD1 (tR=1.55 min) having the same retention time as H2O2 | Forced degradation ([1]; heated in an oven at 80° C. for 30 min): little effect on the degradation | Purity of tested samples ([2]; SnADAM-MeOH solution 15.3 ppm, day 1): 98.17 ± 0.17 (0.18%, n = 3) | Purity of tested samples ([2]; SnADAM-MeOH solution 15.3 ppm, day 2): 98.12 ± 0.21 (0.21%, n = 3) | Purity of tested samples ([2]; SnADAM-MeOH solution 15.3 ppm, day 3): 97.96 ± 0.73 (0.74%, n = 3) | Purity of tested samples ([2]; SnADAM-MeOH solution 153.0 ppm, day 1): 97.12 ± 0.15 (0.15%, n = 3) | Purity of tested samples ([2]; SnADAM-MeOH solution 153.0 ppm, day 2): 97.00 ± 0.25 (0.26%, n = 3) | Purity of tested samples ([2]; SnADAM-MeOH solution 153.0 ppm, day 3): 97.12 ± 0.04 (0.04%, n = 3) | Purity of tested samples ([2]; SnADAM-MeOH solution 306.0 ppm, day 1): 96.77 ± 0.07 (0.07%, n = 3) | Purity of tested samples ([2]; SnADAM-MeOH solution 306.0 ppm, day 2): 96.73 ± 0.06 (0.06%, n = 3) | Purity of tested samples ([2]; SnADAM-MeOH solution 306.0 ppm, day 3): 96.70 ± 0.20 (0.20%, n = 3) | Stability of SnADAM-MeOH solution (change in purity) ([2]; stored at room temperature for three days): no significant change in purity
